Data as given in ChEMBL document CHEMBL3421577, “Discovery and biological evaluation of tetrahydrothieno[2,3-c]pyridine derivatives as selective metabotropic glutamate receptor 1 antagonists for the potential treatment of neuropathic pain” (Eur J Med Chem, 2015).
pIC50: −log10 of the molar value. Active and inactive are the calls of the source. The rule behind the calls is not given here.

Assays:
[1] = target: T1, Metabotropic glutamate receptor 1 (Homo sapiens, UniProt Q13255); experiment: Antagonist activity at human mGluR1 expressed in human Chem-3 cells assessed as inhibition of L-glutamate-induced calcium release at 10 uM by calcium-5 reagent-based fluorescence assay relative to control; format: functional, cell-based
Target sequence in this assay (Q13255 19-1194 limits assumed): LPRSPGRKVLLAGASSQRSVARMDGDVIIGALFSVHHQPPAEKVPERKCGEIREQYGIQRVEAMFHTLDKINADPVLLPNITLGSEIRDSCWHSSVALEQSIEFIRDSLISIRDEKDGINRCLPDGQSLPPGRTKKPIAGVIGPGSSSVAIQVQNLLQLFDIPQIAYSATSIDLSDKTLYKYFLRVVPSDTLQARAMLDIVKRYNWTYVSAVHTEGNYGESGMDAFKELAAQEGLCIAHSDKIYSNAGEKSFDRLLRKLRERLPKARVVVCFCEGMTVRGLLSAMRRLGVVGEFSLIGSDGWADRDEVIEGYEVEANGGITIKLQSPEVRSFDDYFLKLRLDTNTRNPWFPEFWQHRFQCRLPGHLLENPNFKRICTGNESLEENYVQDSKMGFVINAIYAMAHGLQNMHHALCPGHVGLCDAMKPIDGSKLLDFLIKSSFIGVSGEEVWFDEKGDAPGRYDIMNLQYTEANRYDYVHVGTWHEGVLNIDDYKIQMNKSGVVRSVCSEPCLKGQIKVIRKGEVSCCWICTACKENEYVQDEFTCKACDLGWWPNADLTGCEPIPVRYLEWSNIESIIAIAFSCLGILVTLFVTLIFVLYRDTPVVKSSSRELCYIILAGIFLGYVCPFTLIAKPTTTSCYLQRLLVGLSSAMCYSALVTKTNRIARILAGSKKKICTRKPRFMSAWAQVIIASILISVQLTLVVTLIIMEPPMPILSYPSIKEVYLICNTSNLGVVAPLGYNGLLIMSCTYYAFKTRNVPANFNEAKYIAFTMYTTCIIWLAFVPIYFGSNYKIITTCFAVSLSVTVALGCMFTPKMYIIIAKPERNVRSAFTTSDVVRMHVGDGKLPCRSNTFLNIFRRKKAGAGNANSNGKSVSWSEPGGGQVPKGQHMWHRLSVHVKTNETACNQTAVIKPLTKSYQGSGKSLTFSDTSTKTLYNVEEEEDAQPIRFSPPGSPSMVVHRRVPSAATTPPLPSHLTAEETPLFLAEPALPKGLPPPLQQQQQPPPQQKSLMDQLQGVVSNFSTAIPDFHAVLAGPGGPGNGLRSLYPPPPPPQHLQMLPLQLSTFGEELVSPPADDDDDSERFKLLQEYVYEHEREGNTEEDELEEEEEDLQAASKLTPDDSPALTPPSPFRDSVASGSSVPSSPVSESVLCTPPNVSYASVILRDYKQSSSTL

[2] = target: T2, Metabotropic glutamate receptor 5 (Homo sapiens, UniProt P41594); experiment: Antagonist activity at human mGluR5 expressed in human embryonic kidney cells assessed as inhibition of L-glutamate-induced calcium release at 10 uM by calcium-5 reagent-based fluorescence assay relative to control; format: functional, cell-based
[3] = target: T1, Metabotropic glutamate receptor 1; experiment: Antagonist activity at human mGluR1 expressed in human Chem-3 cells assessed as inhibition of L-glutamate-induced calcium release by calcium-5 reagent-based fluorescence assay; format: functional, cell-based
Target sequence in this assay (Q13255 whole entry): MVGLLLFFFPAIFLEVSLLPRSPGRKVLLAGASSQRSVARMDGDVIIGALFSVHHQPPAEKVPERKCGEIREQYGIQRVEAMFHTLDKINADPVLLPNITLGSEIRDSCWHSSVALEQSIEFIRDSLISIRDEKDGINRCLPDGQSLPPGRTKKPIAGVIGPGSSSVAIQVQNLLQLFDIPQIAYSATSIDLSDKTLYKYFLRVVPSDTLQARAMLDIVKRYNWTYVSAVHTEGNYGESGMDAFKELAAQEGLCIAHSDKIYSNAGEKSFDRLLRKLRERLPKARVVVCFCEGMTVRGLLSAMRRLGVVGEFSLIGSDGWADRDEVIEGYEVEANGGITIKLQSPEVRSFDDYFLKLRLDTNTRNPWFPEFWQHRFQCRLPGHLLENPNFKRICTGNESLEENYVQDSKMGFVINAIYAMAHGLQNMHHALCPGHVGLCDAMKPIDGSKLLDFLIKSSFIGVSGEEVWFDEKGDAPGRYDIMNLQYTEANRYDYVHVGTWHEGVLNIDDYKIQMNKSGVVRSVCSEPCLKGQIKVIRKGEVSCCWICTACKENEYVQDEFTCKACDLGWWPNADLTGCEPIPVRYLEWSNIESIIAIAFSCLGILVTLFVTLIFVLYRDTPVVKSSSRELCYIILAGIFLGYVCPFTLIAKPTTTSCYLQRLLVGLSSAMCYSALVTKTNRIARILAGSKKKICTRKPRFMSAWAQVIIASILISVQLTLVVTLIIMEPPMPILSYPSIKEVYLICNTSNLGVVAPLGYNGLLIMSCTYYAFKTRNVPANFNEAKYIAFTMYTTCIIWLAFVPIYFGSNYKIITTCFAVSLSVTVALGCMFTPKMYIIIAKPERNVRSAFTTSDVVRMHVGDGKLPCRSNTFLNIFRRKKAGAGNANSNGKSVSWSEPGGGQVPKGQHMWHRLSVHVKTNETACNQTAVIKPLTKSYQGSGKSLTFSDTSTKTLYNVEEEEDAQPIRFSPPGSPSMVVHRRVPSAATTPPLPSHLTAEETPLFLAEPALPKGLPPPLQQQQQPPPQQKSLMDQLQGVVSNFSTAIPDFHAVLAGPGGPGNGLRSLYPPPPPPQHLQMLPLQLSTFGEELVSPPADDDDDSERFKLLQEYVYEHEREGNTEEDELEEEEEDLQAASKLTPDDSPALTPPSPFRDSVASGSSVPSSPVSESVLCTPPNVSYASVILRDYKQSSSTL

[4] = target: T3, CYP1A2 (Homo sapiens, UniProt P05177); experiment: Inhibition of recombinant human CYP1A2 assessed as remaining activity at 10 uM preincubated for 5 mins followed by substrate and NADP addition measured after 20 mins by fluorescence assay relative to control; format: ADME; details: read-out: Activity
T3 sequence (P05177 whole entry): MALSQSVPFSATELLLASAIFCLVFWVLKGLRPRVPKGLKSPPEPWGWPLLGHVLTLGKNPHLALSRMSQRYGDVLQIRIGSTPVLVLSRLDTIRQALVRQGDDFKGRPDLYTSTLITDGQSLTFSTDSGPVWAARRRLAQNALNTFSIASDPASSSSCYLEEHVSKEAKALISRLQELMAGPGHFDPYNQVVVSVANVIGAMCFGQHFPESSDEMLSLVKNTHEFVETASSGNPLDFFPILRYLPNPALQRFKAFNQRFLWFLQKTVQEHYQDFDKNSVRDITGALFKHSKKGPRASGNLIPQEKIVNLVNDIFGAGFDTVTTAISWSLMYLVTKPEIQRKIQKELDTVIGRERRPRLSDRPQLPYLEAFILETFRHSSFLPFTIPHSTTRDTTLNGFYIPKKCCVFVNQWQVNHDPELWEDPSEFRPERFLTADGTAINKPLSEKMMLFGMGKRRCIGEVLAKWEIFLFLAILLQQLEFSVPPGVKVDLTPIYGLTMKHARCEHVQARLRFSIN

[5] = target: CYP2D6 (Homo sapiens, UniProt P10635); experiment: Inhibition of recombinant human CYP2D6 assessed as remaining activity at 10 uM preincubated for 5 mins followed by substrate and NADP addition measured after 20 mins by fluorescence assay relative to control; format: ADME; details: read-out: Activity
CYP2D6, sequence (P10635 whole entry): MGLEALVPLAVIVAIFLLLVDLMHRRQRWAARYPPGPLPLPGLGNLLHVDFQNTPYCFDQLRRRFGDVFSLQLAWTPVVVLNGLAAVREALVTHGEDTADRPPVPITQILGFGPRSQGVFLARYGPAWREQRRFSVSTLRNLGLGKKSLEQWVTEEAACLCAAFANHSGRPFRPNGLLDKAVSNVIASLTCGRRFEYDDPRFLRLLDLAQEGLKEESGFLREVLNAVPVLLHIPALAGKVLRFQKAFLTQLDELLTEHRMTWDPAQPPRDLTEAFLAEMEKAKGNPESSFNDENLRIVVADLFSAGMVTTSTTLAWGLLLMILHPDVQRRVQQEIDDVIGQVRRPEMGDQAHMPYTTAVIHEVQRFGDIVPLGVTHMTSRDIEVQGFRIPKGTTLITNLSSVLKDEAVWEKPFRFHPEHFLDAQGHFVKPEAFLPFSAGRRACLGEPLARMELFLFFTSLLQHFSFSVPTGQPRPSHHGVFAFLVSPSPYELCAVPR

[6] = target: CYP2C9 (Homo sapiens, UniProt P11712); experiment: Inhibition of recombinant human CYP2C9 assessed as remaining activity at 10 uM preincubated for 5 mins followed by substrate and NADP addition measured after 20 mins by fluorescence assay relative to control; format: ADME; details: read-out: Activity
[7] = target: CYP3A4 (Homo sapiens, UniProt P08684); experiment: Inhibition of recombinant human CYP3A4 assessed as remaining activity at 10 uM preincubated for 5 mins followed by substrate and NADP addition measured after 20 mins by fluorescence assay relative to control; format: ADME; details: read-out: Activity
CYP3A4, sequence (P08684 whole entry): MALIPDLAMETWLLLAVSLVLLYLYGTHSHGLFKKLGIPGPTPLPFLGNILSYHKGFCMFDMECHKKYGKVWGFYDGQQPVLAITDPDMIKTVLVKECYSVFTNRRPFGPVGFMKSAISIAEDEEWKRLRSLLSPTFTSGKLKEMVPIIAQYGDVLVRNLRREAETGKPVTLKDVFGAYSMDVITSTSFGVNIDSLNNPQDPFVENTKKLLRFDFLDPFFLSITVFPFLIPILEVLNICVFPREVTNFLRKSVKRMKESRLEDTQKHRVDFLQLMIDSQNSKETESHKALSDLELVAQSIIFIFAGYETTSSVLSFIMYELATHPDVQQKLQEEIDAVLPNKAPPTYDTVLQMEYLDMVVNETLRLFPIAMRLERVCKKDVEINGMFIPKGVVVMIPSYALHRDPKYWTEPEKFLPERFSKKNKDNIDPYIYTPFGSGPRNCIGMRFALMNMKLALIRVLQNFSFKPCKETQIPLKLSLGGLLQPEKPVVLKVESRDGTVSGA

[8] = target: CYP2C19 (Homo sapiens, UniProt P33261); experiment: Inhibition of recombinant human CYP2C19 assessed as remaining activity at 10 uM preincubated for 5 mins followed by substrate and NADP addition measured after 20 mins by fluorescence assay relative to control; format: ADME; details: read-out: Activity
CYP2C19, sequence (P33261 whole entry): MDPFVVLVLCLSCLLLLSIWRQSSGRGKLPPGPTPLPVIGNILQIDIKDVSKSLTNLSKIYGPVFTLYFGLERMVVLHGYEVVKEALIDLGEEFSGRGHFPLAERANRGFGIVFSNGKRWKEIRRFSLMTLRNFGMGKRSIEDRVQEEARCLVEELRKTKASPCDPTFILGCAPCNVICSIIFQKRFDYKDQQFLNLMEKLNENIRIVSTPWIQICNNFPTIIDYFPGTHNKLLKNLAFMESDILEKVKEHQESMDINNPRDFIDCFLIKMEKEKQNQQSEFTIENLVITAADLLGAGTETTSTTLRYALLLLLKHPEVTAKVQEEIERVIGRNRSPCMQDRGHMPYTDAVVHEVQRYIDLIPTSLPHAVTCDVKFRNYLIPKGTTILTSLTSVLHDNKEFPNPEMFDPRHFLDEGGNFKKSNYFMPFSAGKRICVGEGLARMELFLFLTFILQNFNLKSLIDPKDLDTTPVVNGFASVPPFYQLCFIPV

[9] = Metabolic stability in human liver microsomes assessed as compound remaining at 1 uM after 30 mins by LC-MS/MS analysis in presence of NADPH; format: ADME; details: read-out: Stability
[10] = system: Rattus norvegicus; experiment: Analgesic activity in rat spinal nerve ligation model of neuropathic pain assessed as recovery from mechanical allodynia at 100 mg/kg, po administered on day 14 post ligation surgery measured after 3 hrs relative to control; format: functional
[11] = system: Rattus norvegicus; experiment: Analgesic activity in rat spinal nerve ligation model of neuropathic pain assessed as recovery from cold allodynia at 100 mg/kg, po administered on day 14 post ligation surgery measured after 1 hr relative to control; format: functional
[12] = target: T2, Metabotropic glutamate receptor 5; experiment: Antagonist activity at human mGluR5 expressed in human embryonic kidney cells assessed as inhibition of L-glutamate-induced calcium release by calcium-5 reagent-based fluorescence assay; format: functional, cell-based
Target sequence in this assay (P41594 whole entry): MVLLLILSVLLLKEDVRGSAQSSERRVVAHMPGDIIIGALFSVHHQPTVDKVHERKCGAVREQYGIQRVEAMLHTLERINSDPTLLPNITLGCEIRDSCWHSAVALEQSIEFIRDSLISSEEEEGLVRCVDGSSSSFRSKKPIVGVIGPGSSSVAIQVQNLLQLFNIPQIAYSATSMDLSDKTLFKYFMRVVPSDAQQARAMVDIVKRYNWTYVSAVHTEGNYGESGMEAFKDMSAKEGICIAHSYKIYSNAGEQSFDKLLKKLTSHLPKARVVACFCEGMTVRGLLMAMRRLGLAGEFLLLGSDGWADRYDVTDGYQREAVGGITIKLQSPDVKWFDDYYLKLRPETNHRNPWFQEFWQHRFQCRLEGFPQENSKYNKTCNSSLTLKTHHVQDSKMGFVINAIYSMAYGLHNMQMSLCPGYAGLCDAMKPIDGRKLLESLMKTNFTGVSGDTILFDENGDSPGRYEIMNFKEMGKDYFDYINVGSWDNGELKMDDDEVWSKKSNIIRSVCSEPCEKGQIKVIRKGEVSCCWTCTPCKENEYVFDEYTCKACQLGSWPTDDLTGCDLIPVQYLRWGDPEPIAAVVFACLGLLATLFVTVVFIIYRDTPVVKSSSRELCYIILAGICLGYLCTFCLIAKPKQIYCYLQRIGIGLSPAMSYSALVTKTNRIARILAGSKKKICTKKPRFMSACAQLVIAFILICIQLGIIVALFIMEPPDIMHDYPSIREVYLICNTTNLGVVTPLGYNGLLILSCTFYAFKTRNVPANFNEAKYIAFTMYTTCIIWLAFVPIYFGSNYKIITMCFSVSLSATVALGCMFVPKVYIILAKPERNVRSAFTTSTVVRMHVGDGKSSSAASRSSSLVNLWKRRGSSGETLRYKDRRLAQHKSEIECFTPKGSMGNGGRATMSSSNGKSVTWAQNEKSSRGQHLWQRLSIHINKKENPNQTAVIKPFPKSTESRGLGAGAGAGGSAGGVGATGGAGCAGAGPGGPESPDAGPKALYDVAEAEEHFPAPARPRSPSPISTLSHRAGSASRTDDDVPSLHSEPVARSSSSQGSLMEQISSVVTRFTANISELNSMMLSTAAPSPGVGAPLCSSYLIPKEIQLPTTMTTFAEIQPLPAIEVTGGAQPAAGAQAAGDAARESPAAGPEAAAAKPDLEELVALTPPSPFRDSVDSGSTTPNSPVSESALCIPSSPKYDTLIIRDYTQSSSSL

Compound | inhibition [1] [%] | inhibition [2] [%] | pIC50 [3] | also measured
N#Cc1c(NCc2cccc(F)c2)sc2c1CCN(C(=O)c1ccc(Cl)cc1)C2 | 41.2 | 60 | – | –
COc1cccc(CNc2sc3c(c2C#N)CCN(C(=O)c2ccc(F)cc2)C3)c1 | 67.5 | 31.1 | 5.51 | activity at 20 min, 10 µM [4]: 78.5%; activity at 20 min, 10 µM [5]: 35%; activity at 20 min, 10 µM [6]: 6.46%; activity at 20 min, 10 µM [7]: 12.5%; activity at 20 min, 10 µM [8]: 7.99%; remaining at 0.5 h, 1 µM [9]: 12.1%
CC(C)c1cc(C(=O)N2CCc3c(sc(NCc4ccccc4)c3C#N)C2)[nH]n1 | 54.4 | 8.89 | 4.36 | –
Cc1cc(C(=O)N2CCc3c(sc(NCc4ccc(Cl)cc4)c3C#N)C2)[nH]n1 | 40.9 | 31.2 | – | –
N#Cc1c(NCc2ccccc2)sc2c1CCN(C(=O)c1cnccc1F)C2 | 90.1 | 16 | 5.91 | –
Cc1cc(C(=O)N2CCc3c(sc(NC(=O)c4ccccc4)c3C#N)C2)[nH]n1 | 8.51 | 27.8 | – | –
NCC1(CC(=O)O)CCCCC1 [GABAPENTIN] | – | – | – | Activity [10]: 80%; Activity [11]: 40%
COc1cccc(CNc2sc3c(c2C#N)CCN(C(=O)c2cccc(F)c2)C3)c1 | 15.5 | 33.2 | – | –
Cc1cccc(C(=O)N2CCc3c(sc(NCc4ccccc4)c3C#N)C2)c1 | 73.5 | 8.8 | 5.50 | activity at 20 min, 10 µM [4]: 42.6%; activity at 20 min, 10 µM [5]: 35.7%; activity at 20 min, 10 µM [6]: 4.33%; activity at 20 min, 10 µM [7]: 9.36%; activity at 20 min, 10 µM [8]: 4.57%; remaining at 0.5 h, 1 µM [9]: 16.4%
N#Cc1ccc(CNc2sc3c(c2C#N)CCN(C(=O)c2ccccc2)C3)cc1 | 36.8 | 3.16 | – | –
COc1ccc(C(=O)N2CCc3c(sc(NCc4ccc(F)cc4)c3C#N)C2)cc1 | 47.7 | 68 | – | pIC50 [12]: 5.84
Cc1cc(C(=O)N2CCc3c(sc(NCc4ccc(F)cc4)c3C#N)C2)[nH]n1 | 84.2 | 37.6 | 5.61 | –
CC(C)c1cc(C(=O)N2CCc3c(sc(NCc4ccc(F)cc4)c3C#N)C2)[nH]n1 | 40.7 | 43.1 | – | –
COc1ccc(C(=O)N2CCc3c(sc(NCc4ccc(C#N)cc4)c3C#N)C2)cc1 | 10.9 | 41.5 | – | –
N#Cc1c(NCc2ccccc2)sc2c1CCN(C(=O)c1cccc(F)c1)C2 | 79 | 29.8 | 5.54 | –
CC(C)c1cc(C(=O)N2CCc3c(sc(NC(=O)c4ccccc4)c3C#N)C2)[nH]n1 | 14.6 | 39.3 | – | –
N#Cc1c(NCc2cccc(F)c2)sc2c1CCN(C(=O)c1ccc(F)cc1)C2 | 82 | 36.5 | 5.62 | –
COc1ccc(C(=O)Nc2sc3c(c2C#N)CCN(C(=O)c2cc(C)n[nH]2)C3)cc1 | -9.58 | 28.3 | – | –

Compound | inhibition [1] [%] | inhibition [2] [%] | pIC50 [3] | also measured
N#Cc1c(NCc2ccc(F)cc2)sc2c1CCN(C(=O)c1ccc(F)cc1)C2 | 73.1 | 22.3 | – | –
N#Cc1c(NCc2ccccc2)sc2c1CCN(C(=O)c1ccccc1)C2 | 66.4 | 46 | 5.55 | –
N#Cc1c(NCc2ccc(F)cc2)sc2c1CCN(C(=O)c1ccccc1)C2 | 77.8 | 26.4 | 5.74 | activity at 20 min, 10 µM [4]: 52%; activity at 20 min, 10 µM [5]: 36.4%; activity at 20 min, 10 µM [6]: 5.48%; activity at 20 min, 10 µM [7]: 24.2%; activity at 20 min, 10 µM [8]: 3.81%; remaining at 0.5 h, 1 µM [9]: 33.4%
Cc1ccc(C(=O)N2CCc3c(sc(NCc4ccc(F)cc4)c3C#N)C2)cc1 | 46.6 | 37.6 | – | –
N#Cc1c(NCc2ccc(Cl)cc2)sc2c1CCN(C(=O)c1ccc(F)cc1)C2 | 35.2 | 25.3 | – | –
CC(C)c1cc(C(=O)N2CCc3c(sc(NC(=O)c4ccc(F)cc4)c3C#N)C2)[nH]n1 | 28.5 | -2.3 | – | –
N#Cc1c(NCc2ccccc2)sc2c1CCN(C(=O)c1ccn[nH]1)C2 | 94.9 | 4.48 | 5.96 | –
N#Cc1c(NCc2ccc(F)cc2)sc2c1CCN(C(=O)c1ccn[nH]1)C2 | 91.4 | 13.5 | 5.69 | –
Cc1ccc(C(=O)N2CCc3c(sc(NCc4cccc(F)c4)c3C#N)C2)cc1 | 43.9 | 54.8 | – | –
N#Cc1c(NCc2cccc(F)c2)sc2c1CCN(C(=O)c1ccccc1)C2 | 63.9 | 44.2 | 5.27 | –
CC(C)c1cc(C(=O)N2CCc3c(sc(NCc4ccc(Cl)cc4)c3C#N)C2)[nH]n1 | 46.3 | 24.8 | – | –
Cc1ccc(C(=O)N2CCc3c(sc(NCc4ccccc4)c3C#N)C2)cc1 | 69.7 | 24.3 | 5.33 | –
CC(C)c1cc(C(=O)N2CCc3c(sc(NC(=O)c4ccc(Cl)cc4)c3C#N)C2)[nH]n1 | 62.5 | -4.28 | 4.91 | –
Cc1cc(C(=O)N2CCc3c(sc(NC(=O)c4ccc(F)cc4)c3C#N)C2)[nH]n1 | 31 | 13.7 | – | –
COc1ccc(C(=O)N2CCc3c(sc(NCc4cccc(F)c4)c3C#N)C2)cc1 | 42.8 | 69 | – | pIC50 [12]: 5.33
N#Cc1c(NCc2ccccc2)sc2c1CCN(C(=O)c1ccc(F)cc1)C2 | 91.5 | 26.1 | 6.22 | activity at 20 min, 10 µM [4]: 58.1%; activity at 20 min, 10 µM [5]: 42%; activity at 20 min, 10 µM [6]: 5.48%; activity at 20 min, 10 µM [7]: 20%; activity at 20 min, 10 µM [8]: 9.94%; remaining at 0.5 h, 1 µM [9]: 49.4%; Activity [10]: inactive; Activity [11]: Active
Cc1cc(C(=O)N2CCc3c(sc(NC(=O)c4ccc(Cl)cc4)c3C#N)C2)[nH]n1 | 42.2 | -2.15 | – | –
COc1ccc(C(=O)Nc2sc3c(c2C#N)CCN(C(=O)c2cc(C(C)C)n[nH]2)C3)cc1 | -6.42 | 63.1 | – | pIC50 [12]: 5.32
